From patent US8895761B2, “4-phenylpyrane-3,5-diones, 4-phenylthiopyrane-3,5-diones and 2-phenylcyclohexane-1,3,5-triones as herbicides” (Syngenta Limited, priority 2007, dated 2014)

Tests used:
Format in all cases: in vivo
[1] = test system: Avena fatua (AVEFA); assay: Post-emergence herbicidal glasshouse test, Avena fatua; details: Avena fatua, 312 h, rate 250 g/ha, evaluated after 13 days, scale 100 = total damage to plant, 0 = no damage
Experimental: (§1) Seeds of a variety of test species were sown in standard soil in pots. After cultivation for one day (pre-emergence) or after 8 days cultivation (post-emergence) under controlled conditions in a glasshouse (at 24/16° C., day/night; 14 hours light; 65% humidity), the plants were sprayed with an aqueous spray solution derived from the formulation of the technical active ingredient in acetone/water (50:50) solution containing 0.5% Tween 20 (polyoxyethelyene sorbitan monolaurate, CAS RN 9005-64-5). The test plants were then grown in a glasshouse under controlled conditions in a glasshouse (at 24/16° C., day/night; 14 hours light; 65% humidity) and watered twice daily. After 13 days for pre and post-emergence, the test was evaluated ([…] to plant; 0=no damage to plant).
(§2) Setaria faberi (SETFA), Lolium perenne (LOLPE), Alopecurus myosuroides (ALOMY), Echinochloa crus-galli (ECHCG) and Avena fatua (AVEFA).

[2] = test system: Alopecurus myosuroides (ALOMY); assay: Post-emergence herbicidal glasshouse test, Alopecurus myosuroides; details: Alopecurus myosuroides, 312 h, rate 250 g/ha, evaluated after 13 days, scale 100 = total damage to plant, 0 = no damage
Experimental: as §1, §2

[3] = test system: Echinochloa crus-galli (ECHCG); assay: Post-emergence herbicidal glasshouse test, Echinochloa crus-galli; details: Echinochloa crus-galli, 312 h, rate 250 g/ha, evaluated after 13 days, scale 100 = total damage to plant, 0 = no damage
Experimental: as §1, §2

[4] = test system: Lolium perenne (LOLPE); assay: Pre-emergence herbicidal glasshouse test, Lolium perenne; details: 312 h, rate 250 g/ha, evaluated after 13 days, scale 100 = total damage to plant, 0 = no damage
Experimental: as §1, §2

[5] = test system: Avena fatua (AVEFA); assay: Pre-emergence herbicidal glasshouse test, Avena fatua; details: Avena fatua, 312 h, rate 250 g/ha, evaluated after 13 days, scale 100 = total damage to plant, 0 = no damage
Experimental: as §1, §2

[6] = test system: Lolium perenne (LOLPE); assay: Post-emergence herbicidal glasshouse test, Lolium perenne; details: 312 h, rate 250 g/ha, evaluated after 13 days, scale 100 = total damage to plant, 0 = no damage
Experimental: as §1, §2

[7] = test system: Alopecurus myosuroides (ALOMY); assay: Pre-emergence herbicidal glasshouse test, Alopecurus myosuroides; details: Alopecurus myosuroides, 312 h, rate 250 g/ha, evaluated after 13 days, scale 100 = total damage to plant, 0 = no damage
Experimental: as §1, §2

[8] = test system: Echinochloa crus-galli (ECHCG); assay: Pre-emergence herbicidal glasshouse test, Echinochloa crus-galli; details: Echinochloa crus-galli, 312 h, rate 250 g/ha, evaluated after 13 days, scale 100 = total damage to plant, 0 = no damage
Experimental: as §1, §2

SMILES | pest or weed control at 250 g/ha [1] | pest or weed control at 250 g/ha [2] | pest or weed control at 250 g/ha [3] | pest or weed control at 250 g/ha [4] | pest or weed control at 250 g/ha [5] | pest or weed control at 250 g/ha [6] | pest or weed control at 250 g/ha [7] | pest or weed control at 250 g/ha [8]
CCc1cc(-c2ccc(F)cc2)ccc1C1=C(OC(C)=O)C(C)(C)OC(C)(C)C1=O [Compound D-3] | 80% | 100% | 100% | 100% | 70% | 100% | 90% | 100%
CCc1cc(-c2ccc(F)c(F)c2F)ccc1C1=C(O)C(C)(C)OC(C)(C)C1=O [Compound A-87] | 90% | 70% | 100% | 0% | 0% | 90% | 0% | 0%
CCc1cc(-c2cc(Cl)ccc2OC)ccc1C1=C(O)C(C)(C)C(=O)C(C)(C)C1=O [Compound C-6] | 10% | 20% | 50% | 70% | 10% | 20% | 40% | 0%
CCc1cc(-c2ccc(Cl)c(F)c2F)ccc1C1=C(O)C(C)(C)OC(C)(C)C1=O [Compound A-47] | 70% | 90% | 100% | 50% | 40% | 60% | 0% | 30%
CCc1cc(-c2ccc(F)c(F)c2)ccc1C1=C(O)C(C)(C)C(=O)C(C)(C)C1=O [Compound C-4] | 30% | 80% | 70% | 20% | 0% | 80% | 20% | 0%
CCc1cc(-c2ccc(F)cc2)ccc1C1=C(O)C(C)(CC)OC(C)(CC)C1=O (stereo not shown) [Compound A-104] | 10% | 90% | 90% | 60% | 0% | 60% | 50% | 40%
CCc1cc(-c2ccc(Cl)cc2Cl)ccc1C1=C(O)[C@@]2(C)CC[C@H](O2)C1=O [Compound A-13] | 80% | 70% | 100% | 20% | 0% | 100% | 0% | 50%
Cc1cc(-c2ccc(Cl)cc2F)cc(C)c1C1=C(O)[C@@]2(C)CC[C@H](O2)C1=O (racemic) [Compound A-53] | 80% | 90% | 100% | 90% | 60% | 100% | 50% | 100%
CCc1cc(-c2cc(F)c(F)cc2F)ccc1C1=C(O)C(C)(C)C(=O)C(C)(C)C1=O [Compound C-7] | 10% | 40% | 40% | 20% | 0% | 60% | 30% | 0%
CCc1cc(-c2ccc(C)c(F)c2)ccc1C1=C(O)C(C)(C)OC(C)(C)C1=O [Compound A-72] | 0% | 0% | 80% | 0% | 0% | 70% | 0% | 0%
CCc1cc(-c2ccc(F)c(OC)c2)ccc1C1=C(O)C(C)(C)SC(C)(C)C1=O [Compound B-4] | 80% | 40% | 60% | 0% | 0% | 50% | 0% | 0%
